US20130102631A1, “NOVEL MICROBIOCIDAL DIOXIME ETHER DERIVATIVES” (SYNGENTA CROP PROTECTION LLC, priority 2010, published 2013)

Assays:
[1] = tested on: Phaeosphaeria nodorum (Septoria nodorum); test: Phaeosphaeria nodorum (Septoria nodorum) / wheat / leaf disc preventative (glume blotch); assay type: in vivo; settings: Parastagonospora nodorum, foliar, wheat leaf segments cv Kanzler, inoculated 2 days after application, assessed 5-7 days after application
Protocol: Phaeosphaeria nodorum (Septoria nodorum)/Wheat/Leaf Disc Preventative (Glume Blotch): Wheat leaf segments cv Kanzler were placed on agar in a 24-well plate and sprayed with formulated test compound diluted in water at an application rate of 200 ppm. The leaf disks are inoculated with a spore suspension of the fungus 2 days after application. The inoculated test leaf disks are incubated at 20° C. and 75% relative humidity under a light regime of 12/12 h (light/dark) in a climate cabinet and the activity of a compound is assessed as percent disease control compared to untreated when an appropriate level of disease damage appears in untreated check leaf disks (5-7 days after application). […]-2.508; 5.561; 2.561; E/E-2.208; P.57; 2.513; 2.559; 2.558; 2.557; 2.556; 2.555; 2.374; 2.544; 2.541; 2.539; 2.537; 2.536; 2.535; 2.533; 2.530; 2.526; 2.519; 2.510; 2.516; 2.514; E/E-5.167; E/E-3.002; 2.512

[2] = tested on: Glomerella lagenarium; test: Glomerella lagenarium (Colletotrichum lagenarium) / liquid culture (anthracnose); assay type: cell-based; settings: Colletotrichum orbiculare; at ≦200 ppm, liquid culture PDB, inhibition of growth photometrically 3-4 days after application; read-out: control of Glomerella lagenarium
Protocol: Glomerella lagenarium (Colletotfichum lagenarium)/Liquid Culture (Anthracnose): Conidia of the fungus from cryogenic storage were directly mixed into nutrient broth (PDB potato dextrose broth). After placing a DMSO solution of test compound into a 96-well microtiter, the nutrient broth containing the fungal spores was added. The test plates were incubated at 24° C. and the inhibition of growth is measured photometrically 3-4 days after application. […]-2.509; 5.561; 2.561; E/E-2.208; P.57; 2.513; 2.559; 2.556; 2.555; 2.374; 2.552; 2.548; 2.544; 2.541; 2.540; 2.539; 2.537; 2.536; 2.533; 2.531; 2.530; 2.528; 2.526; 2.519; 2.510; 2.516; 2.514; E/E-5.167; E/E-3.002; 2.512; 2.514; Z/E-2.474

[3] = tested on: Mycosphaerella arachidis (Cercospora arachidicola); test: Mycosphaerella arachidis (Cercospora arachidicola) / liquid culture (early leaf spot); assay type: cell-based; settings: at ≦200 ppm, liquid culture PDB, inhibition of growth photometrically 4-5 days after application, read-out: control of Mycosphaerella arachidis
Protocol: Mycosphaerella arachidis (Cercospora arachidicola)/Liquid Culture (Early Leaf Spot): Conidia of the fungus from cryogenic storage were directly mixed into nutrient broth (PDB potato dextrose broth). After placing a DMSO solution of test compound into a 96-well microtiter plate, the nutrient broth containing the fungal spores was added. The test plates are incubated at 24° C. and the inhibition of growth was determined photometrically 4-5 days after application. […]-2.509; 5.561; 2.561; P.57; 2.513; 2.559; 2.558; 2.557; 2.556; 2.555; 2.374; 2.553; 2.552; 2.551 (fraction B); 2.551 (fraction A); 2.544; 2.541; 2.539; 2.537; 2.536; 2.533; 2.532; 2.531; 2.530; 2.528; 2.526; 2.525 (fraction B); 2.525 (fraction A); 2.524; 2.520; 2.519; 2.510; 2.518; 2.517; 2.516; 2.514; […].002; 2.512; 2.511; 2.514

[4] = tested on: Mycosphaerella graminicola (Septoria tritici); test: Mycosphaerella graminicola (Septoria tritici) / liquid culture (Septoria blotch); assay type: cell-based; settings: Zymoseptoria tritici; at ≦200 ppm, liquid culture PDB, inhibition of growth photometrically 4-5 days after application; read-out: control of Mycosphaerella graminicola
[5] = tested on: Monographella nivalis (Microdochium nivale); test: Monographella nivalis (Microdochium nivale) / liquid culture (foot rot cereals); assay type: cell-based; settings: at ≦200 ppm, liquid culture PDB, inhibition of growth photometrically 4-5 days after application, read-out: control of Monographella nivalis
Protocol: Monographella nivalis (Microdochium nivale)/Liquid Culture (Foot Rot Cereals): Conidia of the fungus from cryogenic storage were directly mixed into nutrient broth (PDB potato dextrose broth). After placing a DMSO solution of test compound into a 96-well microtiter plate, the nutrient broth containing the fungal spores was added. The test plates were incubated at 24° C. and the inhibition of growth was determined photometrically 4-5 days after application. […].57; 2.513; 2.559; 2.558; 2.556; 2.555; 2.374; 2.553; 2.551 (fraction B); 2.551 (fraction A); 2.548; 2.544; 2.542; 2.541; 2.539; 2.536; 2.535; 2.533; 2.530; 2.528; 2.526; 2.525 (fraction B); 2.525 (fraction A); 2.524; 2.519; 2.518; 2.516; 2.514; E/E-5.167; 2.512; 2.514

[6] = tested on: Gaeumannomyces graminis; test: Gaeumannomyces graminis / liquid culture (take-all of cereals); assay type: cell-based; settings: at ≦200 ppm, liquid culture PDB, inhibition of growth photometrically 4-5 days after application, read-out: control of Gaeumannomyces graminis
Protocol: Gaeumannomyces graminis/Liquid Culture (Take-All of Cereals): Mycelial fragments of the fungus from cryogenic storage were directly mixed into nutrient broth (PDB potato dextrose broth). After placing a DMSO solution of test compound into a 96-well microtiter plate, the nutrient broth containing the fungal spores is added. The test plates were incubated at 24° C. and the inhibition of growth was determined photometrically 4-5 days after application. […]-2.509; 5.561; 2.561; P.57; 2.513; 2.559; 2.558; 2.557; 2.556; 2.555; 2.374; 2.553; 2.552; 2.551 (fraction B); 2.551 (fraction A); 2.539; 2.533; 2.528; 2.526; 2.525 (fraction B); 2.525 (fraction A); 2.524; 2.523; 2.521; 2.520; 2.519; 2.510; 2.518; 2.516; 2.514; E/E-5.167; E/E-3.002; 2.512; E/E-2.508

[7] = tested on: Blumeria graminis f. sp. tritici (Erysiphe graminis f. sp. tritici); test: Blumeria graminis f. sp. tritici / wheat / leaf disc preventative (powdery mildew on wheat); assay type: in vivo; settings: foliar, wheat leaf segments cv. Kanzler, inoculated 1 day after application, assessed 6-8 days after application
Protocol: Blumeria graminis f. sp. tritici (Erysiphe graminis f. sp. tritici)/Wheat/Leaf Disc Preventative (Powdery Mildew on Wheat):
Wheat leaf segments cv. Kanzler were placed on agar in a 24-well plate and sprayed with the formulated test compound diluted in water at an application rate of 200 ppm. The leaf disks were inoculated by shaking powdery mildew infected plants above the test plates 1 day after application. The inoculated leaf disks were incubated at 20° C. and 60% relative humidity under a light regime of 24 h darkness followed by 12 h/12 h (dark/light) in a climate chamber and the activity of a compound was assessed as percent disease control compared to untreated when an appropriate level of disease damage appears on untreated check leaf segments (6-8 days after application). The following compounds gave at least 80% control of Blumeria graminis: E/E-2.168, E/E-2.474, E/E-2.002; 5.561; 2.561; E/E-2.208; 2.513; 2.559; 2.557; 2.556; 2.555; 2.374; 2.552; 2.537; 2.533; 2.530; 2.528; 2.526; 2.519; 2.510; 2.516; 2.514; E/E-5.167; E/E-3.002; 2.512; 2.511

SMILES	pest or weed control at 200 ppm [1] [%]	inhibition of growth at up to 200 µg/mL [2] [%]	inhibition of growth at up to 200 µg/mL [3] [%]	inhibition of growth at up to 200 µg/mL [4] [%]	inhibition of growth at up to 200 µg/mL [5] [%]	inhibition of growth at up to 200 µg/mL [6] [%]	pest or weed control at 200 ppm [7] [%]
C/C(=N\OCC(C)(C)CO/N=C1\CCCc2ccc(C)nc21)c1cc(C(C)(C)C)ccn1 [Compound 2.541]	≥ 80	≥ 80	≥ 80	≥ 80	≥ 80	–	–
Cc1ccc2c(n1)/C(=N/OCC(C)(C)CO/N=C(/c1ccccn1)c1ncc(C(F)(F)F)cc1Cl)CCC2 [Compound 2.520]	–	–	≥ 80	–	–	≥ 80	–
Cc1ccc2c(n1)/C(=N/OCC(C)(C)CON=C(c1ccccn1)c1ccccn1)CCC2 [Compound 2.511]	–	–	≥ 80	–	–	–	≥ 80
Cc1ccc2c(n1)/C(=N/OCC(C)(C)CO/N=C(/c1ccccc1)c1ncc(C(F)(F)F)cc1Cl)CCC2 [Compound 2.521]	–	–	–	–	–	≥ 80	–
CSc1nc(/C=N/OCC(C)(C)CO/N=C2\CCCc3ccc(C)nc32)ccc1C#N [Compound 2.535]	≥ 80	–	–	≥ 80	≥ 80	–	–
Cc1cccc(/C(=N\OCC(C)(C)CO/N=C2\CCCc3ccc(C)nc32)c2ccccc2)n1 [Z/E-2.474]	–	≥ 80	≥ 80	–	–	–	–
C/C(=N\OCC(C)(C)CO/N=C1\CCCc2ccc(C)nc21)c1cccc(C#N)n1 [Compound 2.536]	≥ 80	≥ 80	≥ 80	≥ 80	≥ 80	–	–
C/C(=N\OCC(C)(C)CO/N=C1\CCCc2ccc(C)nc21)c1ncc(Cl)cc1F [E/E-2.509]	–	≥ 80	≥ 80	≥ 80	≥ 80	≥ 80	–
Cc1ccc2c(n1)/C(=N/OCC(C)(C)CO/N=C(\c1ccc(Cl)cc1)c1ccccn1)CCC2 [Compound 2.532]	–	–	≥ 80	≥ 80	–	–	–
C/C(=N\OCC(C)(C)CO/N=C1\CCCc2ccc(C)nc21)c1ncc(Cl)cc1O [Compound 2.548]	–	≥ 80	–	≥ 80	≥ 80	–	–
CCOC(=O)c1ccc(/C(C)=N\OCC(C)(C)CO/N=C2\CCCc3ccc(C)nc32)nc1C(F)(F)F [Compound 2.523]	–	–	–	–	–	≥ 80	–
COC(=O)C/C(=N/OCC(C)(C)CO/N=C1\CCCc2ccc(C)nc21)c1ncc(Cl)cc1F [Compound 2.518]	–	–	≥ 80	–	≥ 80	≥ 80	–
Cc1ccc2c(n1)/C(=N/OCC(C)(C)CO/N=C(/c1cccc(Br)n1)c1ccccc1C)CCC2 [Compound 2.539]	≥ 80	≥ 80	≥ 80	≥ 80	≥ 80	≥ 80	–
Cc1cc(C)nc(C(=NOCCCO/N=C2\CCCc3ccc(C)nc32)c2cc(C)cc(C)n2)c1 [Compound 2.557]	≥ 80	–	≥ 80	–	–	≥ 80	≥ 80
C/C(=N\OCC(C)(C)CO/N=C1\CCCc2ccc(C)nc21)c1cc(C#N)ccn1 [Compound 2.531]	–	≥ 80	≥ 80	≥ 80	–	–	–
CC/C(=N\OCC(C)(C)CO/N=C1\CCCc2ccc(C)nc21)c1ncc(Cl)cc1Cl [Compound 2.549]	–	–	–	≥ 80	–	–	–
Cc1ccc2c(n1)/C(=N/OCC(C)(C)CO/N=C(/c1ncc(Cl)cc1Cl)C(C)C)CCC2 [Compound 2.542]	–	–	–	≥ 80	≥ 80	–	–
COC(=O)c1ccc(C(F)(F)F)nc1/C(C)=N/OCC(C)(C)CO/N=C1\CCCc2ccc(C)nc21 [Compound 2.540]	–	≥ 80	–	≥ 80	–	–	–
C/C(=N\OCC(C)(C)CO/N=C1\CCCc2ccc(C)nc21)c1ncc(C(F)(F)F)cc1Cl (single isomer, unassigned) [2.551 (fraction B)]	–	–	≥ 80	≥ 80	≥ 80	≥ 80	–
CC/C(=N/OCC(C)(C)CO/N=C1\CCCc2ccc(C)nc21)c1ccc(C(F)(F)F)cn1 [Compound 2.524]	–	–	≥ 80	–	≥ 80	≥ 80	–
Cc1ccc2c(n1)/C(=N/OCC(C)(C)CO/N=C(\c1ncc(Cl)cc1F)C(C)Cl)CCC2 (stereo not drawn) [Compound 2.545]	–	–	–	≥ 80	–	–	–
